Blank lines part the entries; values can stand above or below the compound they belong to.
Experiments:
HSA [1] = molecular target: T1, HSA (Homo sapiens, UniProt P02768); test: Quantitative analysis of albumin in human plasma sample; parameters: from tissue; host or cells: human plasma (A3); human urine (A4); conditions: human plasma diluted 200 times in PBS pH 7.4, probe 10 μM, 45° C., 30 min
Procedure: (1) 1 μL of human plasma sample was diluted to 200 times by PBS (pH 7.4, 10 mM), then samples were incubated turmoil at 45° C. for 10 min.
(2) 4 μL fluorescent probe B (0.5 mM) was added to the above solution to make the final concentration of the fluorescent probe to 10 μM, and then samples were incubated at 45° C.
(3) After 30 min, 200 μL of ice-cold CH3CN was added to the sample and stirred, and then the reaction was stopped.
(4) Detecting the fluorescence intensity of probe B (λex=342 nm, λem=416 nm) and hydrolysate B1 (λex=452 nm, λem=564 nm) at corresponding wavelength and calculating the fluorescence intensity ratio of B1 to B, the fluorescence ratio was substituted into working curve from example 2, concentration of HSA in plasma albumin was calculated as […].

HSA [2] = molecular target: T1, HSA; test: Quantitative analysis of albumin in urine sample; conditions: human urine diluted with PBS pH 7.4, probe 10 μM, 37° C., 30 min
Procedure: (1) 490 μL of human urine sample was diluted by 490 μL PBS (pH 7.4, 10 mM), and then samples were incubated at 45° C. for 10 min.
(2) 20 μL fluorescent probe C (0.5 mM) was added to the above solution to make the final concentration of the fluorescent probe to 10 μM, and then samples were incubated turmoil at 37° C. for 30 min, 1 mL ice-cold CH3CN was added to the sample and stirred for 15 second, then the reaction was stopped.
(3) Detecting the fluorescence intensity of probe C (λex=342 nm, λem=416 nm) and hydrolysate C1 (λex=452 nm, λem=564 nm) at corresponding wavelength and the fluorescence intensity ratio of C1 to C was calculated.
(4) Finding the corresponding albumin level in the working curve, concentration of HSA in the sample was calculated as 48 mg/L.

HSA [3] = molecular target: T1, HSA; test: Quantitative analysis of HSA in recombinant expression system; conditions: 1 mg/mL recombinant HSA in PBS pH 7.4, probe 10 μM, 37° C., 30 min
Procedure: (1) 10 mg recombinant HSA was weighted and dissolved in PBS (pH=7.4), configuring to 1 mg/mL albumin solution at 37° C.
(2) 20 μL fluorescent probe D (0.5 mM) was added to the above solution to make the final concentration of the fluorescent probe to 10 μM, and then samples were incubated turmoil at 37° C. for 30 min, 1 mL ice-cold CH3CN was added to the sample and stirred for 15 second, then the reaction stopped.
(3) Detecting the fluorescence intensity of probe D (λex=342 nm, λem=416 nm) and hydrolysate D1 (λex=452 nm, λem=564 nm) at corresponding wavelength and the fluorescence intensity ratio of D1 to D was calculated.
(4) Based on the working curve, the concentration of HSA in this sample (1 mg/mL recombinant HSA solution) was calculated as 14.9 μM.

T1 sequence (P02768 25-609): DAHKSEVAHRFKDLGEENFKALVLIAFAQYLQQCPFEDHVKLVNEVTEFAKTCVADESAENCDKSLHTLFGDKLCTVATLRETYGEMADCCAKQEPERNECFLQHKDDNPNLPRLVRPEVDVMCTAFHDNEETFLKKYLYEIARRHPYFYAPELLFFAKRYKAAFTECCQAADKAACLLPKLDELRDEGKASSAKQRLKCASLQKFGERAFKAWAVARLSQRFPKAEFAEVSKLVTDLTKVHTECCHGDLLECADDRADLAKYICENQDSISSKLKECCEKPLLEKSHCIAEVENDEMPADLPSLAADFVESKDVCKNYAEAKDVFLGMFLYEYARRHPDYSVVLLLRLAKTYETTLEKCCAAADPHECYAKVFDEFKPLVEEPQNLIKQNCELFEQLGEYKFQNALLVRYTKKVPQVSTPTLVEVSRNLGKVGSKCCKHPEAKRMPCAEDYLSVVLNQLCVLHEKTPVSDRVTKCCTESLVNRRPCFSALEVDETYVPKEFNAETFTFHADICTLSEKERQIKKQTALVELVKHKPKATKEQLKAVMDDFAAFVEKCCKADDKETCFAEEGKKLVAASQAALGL

concentration of HSA in plasma calculated from fluorescence ratio (HSA [1]): 46.2 mg/mL
SMILES: CCCCN1C(=O)c2cccc3c(OC(=O)c4ccc(C)cc4)ccc(c23)C1=O [Probe B, N-n-butyl-1,8-naphthalimide-4-(4-methylphenylbenzoate)]

concentration of HSA in urine sample calculated from working curve (HSA [2]): 48 mg/L
SMILES: O=C(O)CCCN1C(=O)c2cccc3c(OC(=O)c4ccc(-c5ccccc5)cc4)ccc(c23)C1=O [Probe C, N-3-carboxy propyl-1,8-naphthalimide-4-phenylbenzoate]

concentration of HSA in recombinant HSA solution calculated from working curve (HSA [3]): 14.9 µM
SMILES: CCCCN1C(=O)c2cccc3c(OC(=O)c4ccc(OC)cc4)ccc(c23)C1=O [Probe D, N-n-butyl-1,8-naphthalimide-4-(4-methoxyphenylbenzoate)]
